Columns and labels:
[1] = target: T1, collagenase (MMP-1) (Homo sapiens, UniProt P03956); assay: MMP-1 enzyme inhibition assay (coumarin-labelled peptide substrate); type: biochemical; conditions: fluorogenic substrate McaPLGLDpaAR, 37° C., 2 hours
T1 sequence (P03956 100-469): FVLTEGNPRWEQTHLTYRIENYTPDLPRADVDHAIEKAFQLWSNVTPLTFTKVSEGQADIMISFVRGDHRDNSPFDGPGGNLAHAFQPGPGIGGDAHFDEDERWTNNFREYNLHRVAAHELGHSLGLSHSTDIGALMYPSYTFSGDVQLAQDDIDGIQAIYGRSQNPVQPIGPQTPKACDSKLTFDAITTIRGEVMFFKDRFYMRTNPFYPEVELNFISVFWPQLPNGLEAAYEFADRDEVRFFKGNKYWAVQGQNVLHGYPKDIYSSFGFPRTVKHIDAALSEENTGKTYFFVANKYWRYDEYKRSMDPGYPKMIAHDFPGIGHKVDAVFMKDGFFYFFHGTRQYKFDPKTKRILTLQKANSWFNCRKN
Method: (§1) Compounds of the invention were tested for inhibitory activity against 92 kDa gelatinase (MMP-9) in an assay using a coumarin-labeled peptide substrate, (7-methoxycoumarin-4-yl)acetyl-Pro-Leu-Gly-Leu-(3-[2,4-dinitrophenyl]-L-2,3-diaminopropionyl)-Ala-Arg-NH2 (McaPLGLDpaAR) (Knight et al, 1992, FEBS Lett., 263-266).
(§2) Stock solutions were made up as follows: Assay Butter: 100 mM Tris-HCl pH 7.6 containing 100 mM NaCl, 10 mM CaCl2, and 0.05% Brij 35.
(§3) Substrate: 0.4 mM McaPLGLDpaAR (from Bachem) (0.437 mg/ml) stock solution in 100% DMSO (stored at −20° C.). Dilute to 8 μM in assay butter.
(§4) Enzyme: Recombinant human 92 kDa gelatinase (MMP-9; APMA (4-aminophenyl mercuric acetate)-activated if necessary) appropriately diluted in assay butter.
(§5) Test Compounds were prepared initially as 10 mM compound solution in 100% DMSO, diluted to 1 mM in 100% DMSO, then serially diluted 3-fold in 100% DMSO across columns 1-10 of a 96-well microtitre plate Assay concentration range, 100 μM (column 1) to 5.1 nM (column 10).
(§6) The assay was performed in a total volume of 100 μL per well in 96-well microtitre plates. Activated enzyme (20 μL) was added to the wells followed by 20 μL of assay butter. Appropriate concentrations of test compounds dissolved in 10 μL of DMSO were then added followed by 50 μL of McaPLGLDpaAR ([…], prepared by dilution of DMSO stock in assay butter). For each as say ten concentrations of test compound were examined in duplicate. Control wells lack either enzyme or test compound. The reactions were incubated at 37° C. for 2 hours. The fluorescence at 405 nm was measured immediately with an SLT Fluostar fluorometer (SLT Labinstruments GmbH, Grodig, Austria) using 320 nm excitation, without stopping the reaction.
(§7) The effect of the test compound was determined from the dose response curve generated by the 10 duplicate concentrations of inhibitor. The IC50 (the concentration of compound required to give a 50% decrease in enzyme activity) was obtained by fitting data to the equation, Y=a+((b−a)/(1+(c/X)^d)). (Y=inhibition achieved for a particular dose; X=the dose in nM; a=minimum y or zero % inhibition; b=maximum y or 100% inhibition; c=is the IC50; d=is the slope). The result was rounded to one significant figure.
Compounds of the invention were tested for inhibitory activity against collagenase (MMP-1) in an assay using a coumarin-labelled peptide substrate, (7-methoxycoumarin-4-yl)acetyl-Pro-Leu-Gly-Leu-(3-[2,4-dinitrophenyl]-L-2,3diaminopropionyl)-Ala-Arg-NH2 (Mca PLGLDpaAR) (Knight et al, 1992, above). The protocol for this assay was as described for the MMP-9 assay above.

[2] = target: metalloelastase (MMP-12) (Homo sapiens, UniProt P39900); assay: MMP-12 enzyme inhibition assay (coumarin-labelled peptide substrate); type: biochemical; conditions: fluorogenic substrate McaPLGLDpaAR, 37° C., 2 hours
Method: as §1, §2, §3, §4, §5, §6, §7
Compounds of the invention were tested for inhibitory activity against metalloelastase (MMP-12) in an assay using a coumarin-labelled peptide substrate, (7-methoxycoumarin-4-yl)acetyl-Pro-Leu-Gly-Leu-(3-[2,4dinitrophenyl]-L-2,3-diaminopropionyl)-Ala-Arg-NH2 (McaPLGLDpaAR) (Knight et al, 1992, above). The protocol for this assay was as described for the MMP-9 assay above.

[3] = system: IL-2-induced peritoneal recruitment of lymphocytes; assay: IL-2-induced peritoneal recruitment of lymphocytes; type: in vivo, C3H/HEN mice; conditions: mice, 1 mg/kg po, 15 min prior to IL-2; cells collected 24 h after IL-2
Method: Administration of IL-2 intraperitoneally causes migration of lymphocytes into the intraperitoneal cavity. This is a model for the cellular migration that occurs during inflammation.
C3H/HEN mice (Elevage Janvier, France) are intraperitoneally injected with IL-2 (Serono Pharmaceutical Research Institute, 20 μg/kg, in saline).
Compounds of the invention are suspended in 0.5% carboxymethylcellulose (CMC)/0.25% tween-20 and are administered by s.c. or p.o. route (10 ml/kg) 15 min prior to administration of IL-2.
Twenty-four hours after administration of IL-2, peritoneal white blood cells are collected by 3 successive lavages of the peritoneal cavity with 5 ml phosphate buffered saline (PBS)-1 mM EDTA (+4° C.). The suspension is centrifuged (1700 g×10 min at +4° C.). The resulting pellet is suspended in 1 ml PBS-1 mM EDTA.
Lymphocytes are identified and counted using a Beckman/Coulter counter.
The animals are divided into 6 groups (6 mice each group):
Group 1: (baseline) receives 0.5% CMC/0.25% tween-20 (vehicle of compound of the invention) and saline (vehicle of IL-2);
Group 2: (control IL-2) receives 0.5% CMC/0.25% tween-20 and injection of IL-2;
Group 3: Experimental group (Compound of the invention Dose 1) receives a compound of the invention and injection of IL-2; […]
Inhibition of lymphocyte recruitment is calculated as follows: […]

Sequence of metalloelastase (MMP-12) (P39900 106-470): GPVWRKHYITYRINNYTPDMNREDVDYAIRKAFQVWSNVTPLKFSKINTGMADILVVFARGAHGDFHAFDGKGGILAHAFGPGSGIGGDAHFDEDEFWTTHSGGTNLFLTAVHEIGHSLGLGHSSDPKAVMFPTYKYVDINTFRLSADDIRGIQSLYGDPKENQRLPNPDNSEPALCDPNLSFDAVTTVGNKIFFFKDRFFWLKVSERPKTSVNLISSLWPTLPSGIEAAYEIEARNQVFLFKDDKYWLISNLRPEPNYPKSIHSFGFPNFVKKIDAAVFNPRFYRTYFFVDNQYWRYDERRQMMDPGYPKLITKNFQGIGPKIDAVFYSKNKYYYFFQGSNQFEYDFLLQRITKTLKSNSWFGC

IC50 [1]	IC50 [2]	Compound	% inhibition of IL-2-induced peritoneal recruitment of lymphocytes [3]
> 5000 nM	264 nM	O=C(NO)[C@H](O)CC(=O)N1CCN(c2ccc(F)cc2)CC1 [Example 1, (2R)-4-[4-(4-fluorophenyl)piperazin-1-yl]-N,2-dihydroxy-4-oxo butanamide]	–
> 5000 nM	58 nM	O=C(NO)[C@@H](O)CC(=O)N1CCN(c2ccc(F)cc2)CC1 [Example 2, (2S)-4-[4-(4-fluorophenyl)piperazin-1-yl]-N,2-dihydroxy-4-oxobutanamide]	51%
> 5000 nM	5 nM	C[C@@H]1CN(c2ccc(OC(F)(F)F)cc2)CCN1C(=O)C[C@H](O)C(=O)NO [Example 3, (2S)—N,2-dihydroxy-4-{(2R)-2-methyl-4-[4-(trifluoromethoxy)phenyl]piperazin-1-yl}-4-oxobutanamide]	–
> 5000 nM	5 nM	C[C@@H]1CN(c2ccc(-c3ccccc3)cc2)CCN1C(=O)C[C@H](O)C(=O)NO [Example 4, (2S)-4-[(2R)-4-biphenyl-4-yl-2-methylpiperazin-1-yl]-N,2-dihydroxy-4-oxobutanamide]	–

— patent publication US8198280B2, “N-hydroxyamide derivatives and use thereof” (Merck Serono SA, priority 2005, dated 2012)
